Read-outs that look alike come from different tables or passages of the source.
How the values were obtained:
M1 muscarinic receptor = molecular target: T1, M1 muscarinic receptor (Homo sapiens, UniProt P11229); assay: Functional mobilization of intracellular calcium (FLIPR, Fluo-3), M1-CHO cells; assay type: cell-based; conditions: for Emax: 100% efficacy is the maximum response obtained with the Carbachol control, read-out: M1 Efficacy
T1 construct: expressed in transfected cells; host or cells: CHO cells (M1-CHO, under zeocin and G418 selection)
T1 sequence (P11229 1-460): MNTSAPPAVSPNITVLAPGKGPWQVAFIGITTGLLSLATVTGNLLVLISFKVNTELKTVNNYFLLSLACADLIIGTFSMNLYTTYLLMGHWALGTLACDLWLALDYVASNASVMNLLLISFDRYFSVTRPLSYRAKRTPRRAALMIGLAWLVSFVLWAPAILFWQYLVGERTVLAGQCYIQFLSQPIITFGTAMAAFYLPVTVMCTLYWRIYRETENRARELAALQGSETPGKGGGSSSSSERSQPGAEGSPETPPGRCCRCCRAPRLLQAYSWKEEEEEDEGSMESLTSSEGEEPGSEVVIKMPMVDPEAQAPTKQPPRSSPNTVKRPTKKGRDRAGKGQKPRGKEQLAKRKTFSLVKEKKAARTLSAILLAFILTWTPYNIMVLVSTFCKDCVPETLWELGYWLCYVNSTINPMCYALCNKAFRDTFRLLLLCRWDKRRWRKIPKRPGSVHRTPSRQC
How it was run: (§1)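 Fluo-3 read-out, ex 488/em 540 nm, 60 sec on FLIPR 3. For agonist mode, compound added directly; for inhibition, 15 min compound pre-incubation before carbachol at EC80 (added as a 3× solution), or co-application. Buffer pH 7.4 with 1 mM probenecid; DMSO 0.5%.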

M4 muscarinic receptor = molecular target: T2, M4 muscarinic receptor (Homo sapiens, UniProt P08173); assay: Functional mobilization of intracellular calcium (FLIPR, Fluo-3), M4-CHO cells; assay type: cell-based; conditions: for Emax: 100% efficacy is the maximum response obtained with the Carbachol control, read-out: M4 Efficacy
T2 construct: expressed in transfected cells; host or cells: CHO cells (M4-CHO, under puromycin, zeocin and blasticidin selection)
T2 sequence (P08173 1-479): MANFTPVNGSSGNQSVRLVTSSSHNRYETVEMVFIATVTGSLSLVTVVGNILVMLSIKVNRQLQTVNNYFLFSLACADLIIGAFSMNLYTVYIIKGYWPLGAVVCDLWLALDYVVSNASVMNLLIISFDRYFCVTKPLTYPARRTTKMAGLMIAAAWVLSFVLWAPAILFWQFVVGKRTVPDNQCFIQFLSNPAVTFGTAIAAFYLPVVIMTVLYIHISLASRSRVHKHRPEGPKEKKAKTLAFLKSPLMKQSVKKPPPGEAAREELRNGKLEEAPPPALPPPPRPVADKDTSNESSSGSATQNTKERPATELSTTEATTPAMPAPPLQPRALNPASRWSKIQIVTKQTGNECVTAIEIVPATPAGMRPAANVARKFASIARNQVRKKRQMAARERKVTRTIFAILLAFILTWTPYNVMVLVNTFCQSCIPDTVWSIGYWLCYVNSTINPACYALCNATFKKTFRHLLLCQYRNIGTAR
How it was run: as §1

[1] = compound nos. 1-454, M1-CHO cells, calcium mobilization
[2] = compound nos. 1-454, M4-CHO cells, calcium mobilization

| Compound | M1 Activity (M1 muscarinic receptor; compound nos. 1-454) | Emax (M1 muscarinic receptor; compound nos. 1-454) [%] | M4 Activity (M4 muscarinic receptor; compound nos. 1-454) | Emax (M4 muscarinic receptor; compound nos. 1-454) [%] | Emax (M1 muscarinic receptor; compound nos. 455-509) [%] | M1 Activity (M1 muscarinic receptor; compounds 455-509) | Emax (M4 muscarinic receptor; compound nos. 455-509) [%] | M4 Activity (M4 muscarinic receptor; compounds 455-509) | M1 Activity (M1 muscarinic receptor; [1]) | M4 Activity (M4 muscarinic receptor; [2]) |
| --- | --- | --- | --- | --- | --- | --- | --- | --- | --- | --- |
| CN(C)C(=O)N1CC2(CCN(C3CCN(c4cncnc4)CC3)CC2)c2cc(F)ccc21 [compound 446] | ++ (activity was measured to be between 0.7 μM and 3.0 μM) | 65 to 85 | +++ (activity was measured to be less than or equal to 0.1 μM) | 55 to 70 | – | – | – | – | – | – |
| CN(C)C(=O)N1CCC2(CCN(C3CCN(c4cnccn4)CC3)CC2)c2ccccc21 [compound 457] | – | – | – | – | > 100 | +++ (activity was measured to be less than or equal to 2.0 μM) | 25 to 100 | ++ (activity was measured to be between 2.0 μM and 5.0 μM) | – | – |
| CCOC(=O)N1CCC(N2CCC3(CC2)CN(C(=O)OCC)c2ccc(F)cc23)CC1 [compound 427] | ++ (activity was measured to be between 0.7 μM and 3.0 μM) | < 65 | + (activity was measured to be greater than or equal to 4.0 μM) | < 55 | – | – | – | – | – | – |
| CC(=O)N1CC2(CCN(C3CC4CCC3C4)CC2)c2cc(C)ccc21 (stereo not shown) [compound 138] | – | 65 to 85 | – | 55 to 70 | – | – | – | – | +++ (activity was measured to be less than or equal to 0.7 μM) | + (activity was measured to be greater than or equal to 4.0 μM) |
| CCOC(=O)N1CCC(N2CCC3(CC2)CN(C(C)=O)c2ccc(-c4cccc(C)c4)cc23)CC1 [compound 6] | – | 65 to 85 | – | 55 to 70 | – | – | – | – | +++ (activity was measured to be less than or equal to 0.7 μM) | ++ (activity was measured to be between 0.1 μM and 4.0 μM) |
| COC(=O)N1CCC(CN2CCC3(CC2)C[C@H](NC(C)=O)c2ccccc23)CC1 [compound 182] | – | 65 to 85 | – | 55 to 70 | – | – | – | – | + (activity was measured to be greater than or equal to 3.0 μM) | + (activity was measured to be greater than or equal to 4.0 μM) |
| CCOC(=O)N1C2CCC1CC(N1CCC3(CC1)c1ccccc1C(=O)C3(C)C)C2 (stereo not shown) [compound 278] | – | 65 to 85 | – | 55 to 70 | – | – | – | – | ++ (activity was measured to be between 0.7 μM and 3.0 μM) | ++ (activity was measured to be between 0.1 μM and 4.0 μM) |
| CC(=O)N1CC2(CCN(C3CCCCC3)CC2)c2cc(F)ccc21 [compound 387] | +++ (activity was measured to be less than or equal to 0.7 μM) | 65 to 85 | ++ (activity was measured to be between 0.1 μM and 4.0 μM) | < 55 | – | – | – | – | – | – |
| CN(C)C(=O)N1CC2(CCN(C3CCN(c4cccnc4)CC3)CC2)c2cc(F)ccc21 [compound 453] | +++ (activity was measured to be less than or equal to 0.7 μM) | 65 to 85 | +++ (activity was measured to be less than or equal to 0.1 μM) | 55 to 70 | – | – | – | – | – | – |
| Cc1ccc2c(c1)C1(CCN([C@@H]3C[C@@H]4CC[C@@H]3C4)CC1)CN2 [compound 264] | – | < 65 | – | < 55 | – | – | – | – | + (activity was measured to be greater than or equal to 3.0 μM) | + (activity was measured to be greater than or equal to 4.0 μM) |
| CCOC(=O)N1CCC(N2CCC3(CC2)CN(C(C)=O)c2ccc(F)cc23)CC1 [compound 413] | +++ (activity was measured to be less than or equal to 0.7 μM) | < 65 | ++ (activity was measured to be between 0.1 μM and 4.0 μM) | < 55 | – | – | – | – | – | – |
| COCCOC(=O)N1CCC(CN2CCC3(CC2)CN(C(C)=O)c2ccc(C)cc23)CC1 [compound 419] | + (activity was measured to be greater than or equal to 3.0 μM) | < 65 | + (activity was measured to be greater than or equal to 4.0 μM) | < 55 | – | – | – | – | – | – |
| CCOC(=O)N1C2CCC1CC(N1CCC3(CC1)CN(C(C)=O)c1ccc(F)cc13)C2 (stereo not shown) [compound 371] | – | 65 to 85 | – | > 70 | – | – | – | – | +++ (activity was measured to be less than or equal to 0.7 μM) | + (activity was measured to be greater than or equal to 4.0 μM) |
| CC(=O)NC1CC2(CCN(C3CC4CCC3C4)CC2)c2ccccc21 (stereo not shown) [compound 291] | – | 65 to 85 | – | 55 to 70 | – | – | – | – | ++ (activity was measured to be between 0.7 μM and 3.0 μM) | + (activity was measured to be greater than or equal to 4.0 μM) |
| CC(=O)N1CC2(CCN(C3CCN(c4nc(C)cs4)CC3)CC2)c2ccccc21 [compound 475] | – | – | – | – | 25 to 100 | ++ (activity was measured to be between 2.0 μM and 5.0 μM) | 25 to 100 | ++ (activity was measured to be between 2.0 μM and 5.0 μM) | – | – |
| CN(C)C(=O)N1CC2(CCN(C3CCN(c4nccs4)CC3)CC2)c2cc(F)ccc21 [compound 447] | +++ (activity was measured to be less than or equal to 0.7 μM) | 65 to 85 | +++ (activity was measured to be less than or equal to 0.1 μM) | 55 to 70 | – | – | – | – | – | – |
| CCOC(=O)N1CCC(N2CCC3(CC2)CN(C(=O)CC)c2ccc(F)cc23)CC1 [compound 317] | – | < 65 | – | < 55 | – | – | – | – | + (activity was measured to be greater than or equal to 3.0 μM) | + (activity was measured to be greater than or equal to 4.0 μM) |
| CCOC(=O)N1C2CCC1CC(N1CCC3(CC1)CN(C(=O)Nc1c(C)noc1C)c1ccc(F)cc13)C2 (stereo not shown) [compound 83] | – | < 65 | – | < 55 | – | – | – | – | +++ (activity was measured to be less than or equal to 0.7 μM) | + (activity was measured to be greater than or equal to 4.0 μM) |
| CCOC(=O)N1CCC(N2CCC3(CC2)CN(C(C)=O)c2ccc(-c4ccccc4F)cc23)CC1 [compound 146] | – | > 85 | – | > 70 | – | – | – | – | +++ (activity was measured to be less than or equal to 0.7 μM) | +++ (activity was measured to be less than or equal to 0.1 μM) |
| CCOC(=O)N1CCC(N2CCC3(CC2)CN(C(=O)N(CC)CC)c2ccc(F)cc23)CC1 [compound 223] | – | < 65 | – | < 55 | – | – | – | – | + (activity was measured to be greater than or equal to 3.0 μM) | + (activity was measured to be greater than or equal to 4.0 μM) |
| CCc1nsc(N2CCC(N3CCC4(CC3)CN(C(=O)N(C)C)c3ccccc34)CC2)n1 [compound 476] | – | – | – | – | > 100 | +++ (activity was measured to be less than or equal to 2.0 μM) | > 100 | +++ (activity was measured to be less than or equal to 2.0 μM) | – | – |
| Cc1cc(C(=O)N2CC3(CCN(C4CC5CCC(C4)N5C(=O)O[C@H]4CCOC4)CC3)c3cc(F)ccc32)nn1C (stereo partly shown) [compound 233] | – | 65 to 85 | – | > 70 | – | – | – | – | +++ (activity was measured to be less than or equal to 0.7 μM) | +++ (activity was measured to be less than or equal to 0.1 μM) |
| CN(C)C(=O)N1CC2(CCN(C3CC4CCC(C3)N4C(=O)OCCF)CC2)c2cc(F)ccc21 (stereo not shown) [compound 32] | – | > 85 | – | 55 to 70 | – | – | – | – | +++ (activity was measured to be less than or equal to 0.7 μM) | +++ (activity was measured to be less than or equal to 0.1 μM) |
| COC(=O)N1CCC(N2CCC3(CC2)CN(C(=O)N(C)C)c2ccc(F)cc23)CC1 [compound 154] | – | 65 to 85 | – | > 70 | – | – | – | – | +++ (activity was measured to be less than or equal to 0.7 μM) | +++ (activity was measured to be less than or equal to 0.1 μM) |
| CCOC(=O)N[C@@H]1CC2(CCN(C[C@H]3C[C@H]4CC[C@H]3C4)CC2)c2ccccc21 [compound 275] | – | 65 to 85 | – | > 70 | – | – | – | – | +++ (activity was measured to be less than or equal to 0.7 μM) | ++ (activity was measured to be between 0.1 μM and 4.0 μM) |

Reference: patent US7858635B2 (priority 2005, dated 2010)
